Molecular target: T1, Coagulation factor XII (Homo sapiens, UniProt P00748)
T1 sequence (P00748 whole entry): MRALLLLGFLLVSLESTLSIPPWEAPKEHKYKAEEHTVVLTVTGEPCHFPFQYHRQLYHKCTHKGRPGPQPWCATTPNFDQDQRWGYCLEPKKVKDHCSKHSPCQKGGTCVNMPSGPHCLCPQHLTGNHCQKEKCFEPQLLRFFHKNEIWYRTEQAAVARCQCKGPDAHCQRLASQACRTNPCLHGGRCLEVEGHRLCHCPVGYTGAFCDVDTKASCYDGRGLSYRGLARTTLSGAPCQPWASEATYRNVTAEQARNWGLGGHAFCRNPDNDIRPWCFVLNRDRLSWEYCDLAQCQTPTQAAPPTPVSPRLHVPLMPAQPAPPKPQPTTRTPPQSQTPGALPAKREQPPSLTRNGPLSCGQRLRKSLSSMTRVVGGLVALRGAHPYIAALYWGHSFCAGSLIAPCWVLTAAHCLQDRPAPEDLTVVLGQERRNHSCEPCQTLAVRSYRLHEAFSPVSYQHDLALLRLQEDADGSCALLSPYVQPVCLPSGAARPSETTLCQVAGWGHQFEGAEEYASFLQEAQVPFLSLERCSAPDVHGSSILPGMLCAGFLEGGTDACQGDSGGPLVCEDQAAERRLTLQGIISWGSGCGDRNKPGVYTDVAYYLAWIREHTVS
Test: FXIIa inhibitor potency, concentration-response, biochemical (AID 716)

Row | IC50 [µM] | SMILES
1 | > 50 | C=CCOC(=O)C1=C(C)N=C(C)C(C(=O)OCC=C)C1c1ccc(O)cc1 (configuration not stated) [SMR000107649]
2 | > 50 | CC(C)C1c2c(-c3cccs3)n[nH]c2OC(=N)C1C#N (configuration not stated) [SMR000014022]

From BindingDB's records for doi:10.7270/Q2BC3WZZ (Pcmd, 2008)
